Values after ≈ are worked out from the molar mass of the structure shown. Active and inactive are the calls of the source. No cut-off for these calls is given here.
What was measured:
[1] = Inhibition of ATP synthase in Mycobacterium smegmatis inverted membrane vesicles assessed as reduction in oxidative phosphorylation of ADP incubated for 60 mins in presence of NADH by luciferin/luciferase coupled […] assay; design: species or system Mycolicibacterium smegmatis
[2] = system: Mycobacterium tuberculosis; assay: Antimycobacterial activity against Mycobacterium tuberculosis under aerobic condition after 7 days by microdilution method; type: functional; details: 168 h
[3] = system: Mycobacterium tuberculosis; assay: Antimycobacterial activity against drug sensitive Mycobacterium tuberculosis Beijing (E-47/94) by turbidometric method; type: functional
[4] = system: Mycobacterium tuberculosis; assay: Antimycobacterial activity against drug sensitive Mycobacterium tuberculosis ATCC 27294 by turbidometric method; type: functional
[5] = system: Mycobacterium tuberculosis; assay: Antimycobacterial activity against drug sensitive Mycobacterium tuberculosis isolate 25618 by turbidometric method; type: functional
[6] = system: Mycobacterium tuberculosis; assay: Antimycobacterial activity against drug sensitive Mycobacterium tuberculosis Erdman by turbidometric method; type: functional; details: Erdman = ATCC 35801
[7] = system: Mycobacterium tuberculosis; assay: Antimycobacterial activity against drug sensitive Mycobacterium tuberculosis Harlingen by turbidometric method; type: functional
[8] = system: Mycobacterium tuberculosis; assay: Bactericidal activity against Mycobacterium tuberculosis under aerobic condition after 7 days by microdilution method; type: functional; details: 168 h
[9] = system: Mycobacterium tuberculosis; assay: Bactericidal activity against Mycobacterium tuberculosis under replicating condition assessed as reduction in colony forming units at 3.125 to 200 uM by time kill kinetic study; type: functional, organism-based; details: TDE = time-dependent effect
[10] = system: Mycobacterium tuberculosis; assay: Bactericidal activity against Mycobacterium tuberculosis under hypoxic condition after 7 days by microdilution method; type: functional; details: 168 h
Mus musculus = assay: T>MIC in Mycobacterium tuberculosis H37Rv infected Balb/c mouse at 100 to 200 mg/kg, po qd dosed 6 days per week for 2 weeks by LC-MS analysis
[11] = Ratio of IC50 for ATP synthase in Mycobacterium smegmatis inverted membrane vesicles to IC50 for Mycobacterium bovis BCG
[12] = system: Mycobacterium tuberculosis; assay: Ratio of MBC for Mycobacterium tuberculosis under hypoxic condition to MIC for Mycobacterium tuberculosis under aerobic condition; type: functional
[13] = Selectivity index, ratio of IC50 for bovine heart mitochondrial ATP synthase to IC50 for ATP synthase in Mycobacterium smegmatis inverted membrane vesicles
[14] = system: Mycobacterium tuberculosis; assay: Antimycobacterial activity against Mycobacterium tuberculosis H37Rv infected in Balb/c mouse assessed as reduction in CFU in lungs at 100 to 200 mg/kg, po qd dosed 6 days per week for 2 weeks; type: functional, organism-based
[15] = Inhibition of bovine heart mitochondrial ATP synthase assessed as reduction in oxidative phosphorylation of ADP in presence of NADH by ATP bioluminescence assay; design: species or system Bos taurus
[16] = system: Mycobacterium tuberculosis; assay: Antimycobacterial activity against Mycobacterium tuberculosis H37Rv infected in Balb/c mouse assessed as log reduction in CFU in lungs at 10 mg/kg, po qd dosed 6 days per week for 2 weeks; type: functional

Structure (SMILES) | IC50 [1] | MIC [2] | MIC80 [3] | MIC80 [4] | MIC80 [5] | MIC80 [6] | MIC80 [7] | MBC [8] | MBC [10] | Ratio IC50 [13] | further results
N#CC(C#N)=NNc1cccc(Cl)c1 [CARBONYL CYANIDE M-CHLOROPHENYLHYDRAZONE] | 4800 nM | – | – | – | – | – | – | – | – | – | –
CCOc1ncc(Nc2nc(OCCC3CCOCC3)nc3cc(OC)c(OC)cc23)cc1F | 25000 nM | > 200 µM | – | – | – | – | – | – | – | – | –
CN[C@@H]1[C@H](O[C@H]2[C@H](O[C@H]3[C@H](O)[C@@H](O)[C@H](N=C(N)N)[C@@H](O)[C@@H]3N=C(N)N)O[C@@H](C)[C@]2(O)C=O)O[C@@H](CO)[C@H](O)[C@H]1O [STREPTOMYCIN] | – | – | 0.3 µM (≈ 0.174 µg/mL) | 0.3 µM (≈ 0.174 µg/mL) | 0.3 µM (≈ 0.174 µg/mL) | 0.3 µM (≈ 0.174 µg/mL) | 0.3 µM (≈ 0.174 µg/mL) | – | – | – | –
CO[C@H]1/C=C/O[C@@]2(C)Oc3c(C)c(O)c4c(O)c(c(/C=N/N5CCN(C)CC5)c(O)c4c3C2=O)NC(=O)/C(C)=C\C=C\[C@H](C)[C@H](O)[C@@H](C)[C@@H](O)[C@@H](C)[C@H](OC(C)=O)[C@@H]1C [RIFAMPIN] | – | – | 0.04 µM (≈ 0.0329 µg/mL) | 0.04 µM (≈ 0.0329 µg/mL) | 0.04 µM (≈ 0.0329 µg/mL) | 0.04 µM (≈ 0.0329 µg/mL) | 0.04 µM (≈ 0.0329 µg/mL) | – | – | – | –
CN(C)CCOc1ncc(Nc2cc(-c3ccccc3)nc3cc(-c4ccc(F)cc4)nn23)cc1F | 450 nM | 6.2 µM (≈ 3.02 µg/mL) | 6.3 µM (≈ 3.07 µg/mL) | 6.3 µM (≈ 3.07 µg/mL) | 6.3 µM (≈ 3.07 µg/mL) | 6.3 µM (≈ 3.07 µg/mL) | 6.3 µM (≈ 3.07 µg/mL) | 28 µM (≈ 13.6 µg/mL) | 100 µM (≈ 48.7 µg/mL) | 20 | Activity [9]: tde; T>MIC (Mus musculus): 24 h; Ratio IC50 [11]: 100; Ratio [12]: 15; Activity [14]: Active
CN(C)CCOc1ncc(Nc2cc(C(F)(F)F)nc3cc(-c4ccc(F)cc4)nn23)cc1F | 500 nM | 12.5 µM (≈ 5.98 µg/mL) | – | – | – | – | – | – | – | 19 | Ratio IC50 [11]: 100
CN(C)CCOc1ncc(Nc2cc(-c3ccccc3)nc3cc(-c4ccc(F)cc4)[nH]c23)cc1F | 100 nM | 0.8 µM (≈ 0.388 µg/mL) | 3.1 µM (≈ 1.51 µg/mL) | 3.1 µM (≈ 1.51 µg/mL) | 3.1 µM (≈ 1.51 µg/mL) | 3.1 µM (≈ 1.51 µg/mL) | 3.1 µM (≈ 1.51 µg/mL) | – | – | 13 | Ratio IC50 [11]: 100
COc1nc2ccc(Br)cc2cc1[C@@H](c1ccccc1)[C@@](O)(CCN(C)C)c1cccc2ccccc12 [BEDAQUILINE] | 5 nM | 0.2 µM (≈ 0.111 µg/mL) | < 2 µM | 0.2 µM (≈ 0.111 µg/mL) | < 2 µM | < 2 µM | < 2 µM | 1.6 µM (≈ 0.889 µg/mL) | 4 µM (≈ 2.22 µg/mL) | – | Ratio IC50 [11]: 100; Ratio [12]: 15
COc1cc2nc(N3CCC(c4ccccc4Cl)C3)cc(Nc3cnc(NCCN(C)C)c(F)c3)c2cc1OC (stereo not given) | 100 nM | 1.6 µM (≈ 0.904 µg/mL) | – | – | – | – | – | – | – | 51 | –
COc1cc2nc(NCCC3CCOCC3)nc(Nc3cc(C(C)(C)C)n(C)n3)c2cc1OC | 100 nM | 6.2 µM (≈ 2.91 µg/mL) | – | – | – | – | – | 25 µM (≈ 11.7 µg/mL) | 50 µM (≈ 23.4 µg/mL) | 52 | Ratio IC50 [11]: 100; Ratio [12]: 15
COc1cc2nc(NCCC3CCOCC3)cc(Nc3cnc(OCCN(C)C)c(F)c3)c2cc1OC | 3700 nM | 200 µM (≈ 103 µg/mL) | – | – | – | – | – | – | – | 1 | –
COc1cc2nc(N3CCC(c4ccccc4Cl)C3)cc(Nc3cnc(OCC4CCCN4C)c(F)c3)c2cc1OC (stereo not given) | 60 nM | 6.2 µM (≈ 3.67 µg/mL) | – | – | – | – | – | 50 µM (≈ 29.6 µg/mL) | 50 µM (≈ 29.6 µg/mL) | 44 | Ratio [12]: 15
COc1cc2nc(NCCC3CCOCC3)nc(Nc3ncc(C(C)C)s3)c2cc1OC | 100 nM | 6.2 µM (≈ 2.84 µg/mL) | – | – | – | – | – | 25 µM (≈ 11.4 µg/mL) | 50 µM (≈ 22.9 µg/mL) | – | Ratio [12]: 15
COc1cc2nc(NCCC3CCOCC3)nc(Nc3cnc(OCCN(C)C)c(F)c3)c2cc1OC | 900 nM | 25 µM (≈ 12.9 µg/mL) | – | – | – | – | – | – | – | > 28 | IC50 [15]: > 25000 nM
COc1cc2nc(NCCC3CCOCC3)nc(Nc3cnc(OC)c(C)c3)c2cc1OC | 400 nM | 3.1 µM (≈ 1.41 µg/mL) | – | – | – | – | – | 25 µM (≈ 11.3 µg/mL) | 13 µM (≈ 5.9 µg/mL) | 10 | Ratio [12]: 15
CN(C)CCOc1ncc(Nc2cc(N3CCC(c4ccccc4Cl)C3)nc3cc(F)c(F)cc23)cc1F (stereo not given) | 100 nM | 3.1 µM (≈ 1.68 µg/mL) | 3.1 µM (≈ 1.68 µg/mL) | 3.1 µM (≈ 1.68 µg/mL) | 3.1 µM (≈ 1.68 µg/mL) | 3.1 µM (≈ 1.68 µg/mL) | 3.1 µM (≈ 1.68 µg/mL) | 38 µM (≈ 20.6 µg/mL) | 50 µM (≈ 27.1 µg/mL) | 19 | Ratio IC50 [11]: 100; Ratio [12]: 15; Activity [14]: Active
CCOc1ncc(Nc2nc(NCCC3CCOCC3)nc3cc(OC)c(OC)cc23)cc1F | 600 nM | 1.9 µM (≈ 0.896 µg/mL) | – | – | – | – | – | 19 µM (≈ 8.96 µg/mL) | 3 µM (≈ 1.41 µg/mL) | 2.3 | Ratio [12]: 15
CC(Nc1nc(N2CCCCC2)nc2ccccc12)c1ccccc1 (stereo not given) | 2100 nM | 25 µM (≈ 8.31 µg/mL) | – | – | – | – | – | – | – | 2.6 | IC50 [15]: 2600 nM
COc1cc2nc(NCCc3ccccc3Cl)cc(Nc3cnc(OCCN(C)C)c(F)c3)c2cc1OC | 60 nM | 3.1 µM (≈ 1.67 µg/mL) | – | – | – | – | – | – | – | 79 | –
CCOc1ncc(Nc2cc(NCCC3CCOCC3)nc3cc(OC)c(OC)cc23)cc1F | 800 nM | 6.2 µM (≈ 2.92 µg/mL) | – | – | – | – | – | – | – | 3.2 | Ratio IC50 [11]: 100
CC(Nc1nc(N2CCCC2)nc2ccccc12)c1ccccc1 (stereo not given) | 2500 nM | 50 µM (≈ 15.9 µg/mL) | – | – | – | – | – | – | – | < 0.04 | –
CCOc1ncc(Nc2cc(NCCC3CCOCC3)nc3ccnn23)cc1F | 21000 nM | > 50 µM | – | – | – | – | – | – | – | > 1.2 | –
CC1COc2c(N3CCN(C)CC3)c(F)cc3c(=O)c(C(=O)O)cn1c23 (stereo not given) [OFLOXACIN] | – | – | 0.7 µM (≈ 0.253 µg/mL) | 0.7 µM (≈ 0.253 µg/mL) | 0.7 µM (≈ 0.253 µg/mL) | 0.7 µM (≈ 0.253 µg/mL) | 0.7 µM (≈ 0.253 µg/mL) | – | – | – | –
COc1cc2nc(N3CCC(c4ccccc4Cl)C3)cc(Nc3cnc(OCCN(C)C)c(F)c3)c2cc1OC (stereo not given) | 40 nM | 1.6 µM (≈ 0.906 µg/mL) | 3.1 µM (≈ 1.75 µg/mL) | 6.3 µM (≈ 3.57 µg/mL) | 3.1 µM (≈ 1.75 µg/mL) | 3.1 µM (≈ 1.75 µg/mL) | 3.1 µM (≈ 1.75 µg/mL) | 54 µM (≈ 30.6 µg/mL) | 200 µM (≈ 113 µg/mL) | 128 | Ratio IC50 [11]: 100
Cn1nc(Nc2nc(NCCC3CCOCC3)nc3ccccc23)cc1C(C)(C)C | 1700 nM | 6.2 µM (≈ 2.53 µg/mL) | – | – | – | – | – | – | – | 4.5 | –
CC[C@@H](CO)NCCN[C@@H](CC)CO [ETHAMBUTOL] | – | – | 9.8 µM (≈ 2 µg/mL) | 9.8 µM (≈ 2 µg/mL) | 9.8 µM (≈ 2 µg/mL) | 9.8 µM (≈ 2 µg/mL) | 9.8 µM (≈ 2 µg/mL) | – | – | – | –
COc1cc2nc(NCCc3cccnc3)nc(Nc3cnc(OC)c(C)c3)c2cc1OC | 100 nM | > 200 µM | – | – | – | – | – | – | – | 96 | –
NNC(=O)c1ccncc1 [ISONIAZID] | – | – | 0.2 µM (≈ 0.0274 µg/mL) | 0.2 µM (≈ 0.0274 µg/mL) | 0.2 µM (≈ 0.0274 µg/mL) | 0.2 µM (≈ 0.0274 µg/mL) | 0.2 µM (≈ 0.0274 µg/mL) | – | – | – | Activity [16]: >2 deltalog10CFU

Reference: ChEMBL document CHEMBL3817834, “Scaffold morphing leading to evolution of 2,4-diaminoquinolines and aminopyrazolopyrimidines as inhibitors of the ATP synthesis pathway” (Medchemcomm, 2016)
